The data set in a line: Solid state stability testing on storage. It is filed as physicochemical. As to the method:
Samples (20 and 80 mg each) of the Form A material produced by the process of Example 7 were stored at 25° C. and 60% relative humidity and at 40° C. and 75% relative humidity in open containers and in closed containers.
X-ray powder diffraction patterns were obtained with a Shimadzu 6000 diffractometer using Cu Kα (40.0 kV, 35.0 mA) radiation. The analysis was performed with the goniometer running in continuous-scan mode of 2°/min with a step size of 0.020 over a range of 4 to 45°. Samples were prepared on glass specimen holders as a thin layer of powdered material. The instruments was calibrated to a silicon metal standard.
Differential scanning calorimetry traces were obtained with a TA instruments model DSCQ10. Samples were placed in sealed aluminum pans for analysis with an empty pan serving as the reference. Samples were equilibrated at 30° C. and heated at 5° C. per minute to a temperature of 300° C. The instrument was calibrated with an indium standard.
Thermogravimetric analysis was conducted using a TA instruments model Q50. Samples were weighed in aluminum pans and heated from 30° C. to 300° C. at a rate of 5° C./min.
HPLC analysis was performed using reverse phase conditions and a gradient of 2% to 90% acetonitrile over 6 minutes. Solvents contain 0.1% trifluoroacetic acid. Column: Zorbax 2.1×50 mm, flow rate 0.5 mL/min, observed wavelength 214 nm.

The mark [1] stands for this setting: solid stored four weeks at 25° C. and 60% relative humidity in closed containers.

As to `COc1ccc(Nc2ccc(CCNC[C@H](O)c3ccc(O)c4[nH]c(=O)ccc34)cc2)cc1-c1ccccc1.Cl` [Form A, N-{2-[4-(3-phenyl-4-methoxyphenyl)aminophenyl]ethyl}-(R)-2-hydroxy-2-(8-hydroxy-2(1H)-quinolinon-5-yl)ethylamine monohydrochloride water/isopropanol solvate], for the setting “four weeks at 25° C. and 60% humidity in closed containers”, the “stability upon storage (HPLC degradant peaks; DSC, TGA and XRPD traces)” value is “stable”. Further, under setting [1], the “changes in analysis by DSC and TGA” value is on record as “no detectable differences”; the “chemical degradation, analysis by HPLC” value was “no detectable chemical degradation”. The “solvent content on storage in open containers” value (solid stored in open containers over four weeks (25° C./60% RH and 40° C./75% RH)) is “loss of isopropanol”.

For the origin of these results see patent publication US7060712B2, “Crystalline form of aryl aniline β2 adrenergic receptor agonist” (Theravance, Inc., priority 2003, dated 2006).
